The values that follow come from paper PMC10889811, “Potential Candidate Molecule of Photosystem II Inhibitor Herbicide—Brassicanate A Sulfoxide” (International Journal of Molecular Sciences, 2024).

The experiment deals with T1, photosystem II D1 protein (PSBD1; psbA).
T1 construct: gene psbA1; psbA cloned BamHI/HindIII into pFastBac1; expressed in Sf9 insect cells; His-tagged (kept, captured on NTA sensor), Ni column from sonicated pellet supernatant; recombinant plasmid printed as 5238 bp, small for a full-length psbA insert; isolated D1 without other PSII subunits or cofactors; PDB 7ZCL is the docking model only
Put plainly: biolayer interferometry (Octet R8, NTA sensor). Format: binding. To be noted: PBS, 5% DMSO; analyte 1 mM; His-tagged protein immobilised on NTA sensor; read-out: affinity constant.

Consider `COC(=O)c1c([S+](C)[O-])[nH]c2ccccc12` (stereo not shown) [brassicanate A sulfoxide], for which the Kd was found to be 2690 µM.
